Data taken from patent US9428499B2, “Heterocyclyl compounds as MEK inhibitors” (LUPIN LIMITED, priority 2012, dated 2016).

Tested on: ERK phosphorylation
Experiment: Analysis of ERK phosphorylation (Alphascreen SureFire Phospho-ERK 1/2)
Format: cell-based, human and mouse
Settings: cells treated for 1 h; human melanoma cells, human and mouse colon cancer cells; read-out: Minimum concentration (nM) required for ≧80% inhibition of pERK
Method: This assay was carried out with human melanoma cells, human and mouse colon cancer cells. Cells were treated for 1 h with various concentrations of test compounds. ERK phosphorylation analysis was performed using the Alphascreen SureFire Phospho-ERK 1/2 Kit (Perkin Elmer), by following the manufacturer's instructions. % inhibition of ERK phosphorylation was determined as: 100−{(RFU test−RFU lysis buffer control)/(RFU vehicle treated control−RFU lysis buffer control)}×100. Percentage inhibition at concentrations of 0.01 nM, 0.03 nM, 0.1-0.9 nM, 1 nM to 3 nM, 4-100 nM, and >100 nM, for the stated examples is setworth here. The percentage inhibition at the above depicted concentrations for the compounds stated are given in the following groups.

Row | SMILES | IC80 [nM]
1 | Cc1c(=O)n(C)c(Nc2ccc(I)cc2F)c2c(=O)[nH]c(=O)n(-c3cccc(C(C)(C)C(N)=O)c3)c12 [Compound 9, 2-(3-(5-((2-fluoro-4-iodophenyl)amino)-6,8-dimethyl-2,4,7-trioxo-3,4,6,7-tetrahydropyrido[4,3-d]pyrimidin-1(2H)-yl)phenyl)-2-methylpropanamide] | 0.1 to 0.9
2 | Cc1c(=O)n(C)c(Nc2ccc(I)cc2F)c2c(=O)n(C)c(=O)n(-c3cccc(CC(=O)N4CC(O)C4)c3)c12 [Compound 48, 5-((2-fluoro-4-iodophenyl)amino)-1-(3-(2-(3-hydroxyazetidin-1-yl)-2-oxoethyl)phenyl)-3,6,8-trimethylpyrido[4,3-d]pyrimidine-2,4,7(1H,3H,6H)-trione] | 1 to 3
3 | Cc1c(=O)n(C)c(Nc2ccc(I)cc2F)c2c(=O)n(C)c(=O)n(-c3cccc(C(=O)NC4CCOCC4)c3)c12 [Compound 52, 3-(5-((2-fluoro-4-iodophenyl)amino)-3,6,8-trimethyl-2,4,7-trioxo-3,4,6,7-tetrahydropyrido[4,3-d]pyrimidin-1(2H)-yl)-N-(tetrahydro-2H-pyran-4-yl)benzamide] | 4 to 100
4 | Cc1c(=O)n(C)c(Nc2ccc(I)cc2F)c2c(=O)n(C3CC3)c(=O)n(-c3cccc(C(=O)N4CCCC4)c3)c12 [Compound 27, 3-cyclopropyl-5-((2-fluoro-4-iodophenyl)amino)-6,8-dimethyl-1-(3-(pyrrolidine-1-carbonyl)phenyl)pyrido[4,3-d]pyrimidine-2,4,7(1H,3H,6H)-trione] | 1 to 3
5 | CCn1c(=O)c2c(Nc3ccc(I)cc3F)n(C)c(=O)c(C)c2n(-c2cccc(CC(=O)N(C)C)c2)c1=O [Compound 67, 2-(3-(3-ethyl-5-((2-fluoro-4-iodophenyl)amino)-6,8-dimethyl-2,4,7-trioxo-3,4,6,7-tetrahydropyrido[4,3-d]pyrimidin-1(2H)-yl)phenyl)-N,N-dimethylacetamide] | 0.1 to 0.9
6 | Cc1c(=O)n(C)c(Nc2ccc(I)cc2F)c2c(=O)n(C3COC3)c(=O)n(-c3cccc(OCC(N)=O)c3)c12 [Compound 71, 2-(3-(5-((2-fluoro-4-iodophenyl)amino)-6,8-dimethyl-3-(oxetan-3-yl)-2,4,7-trioxo-3,4,6,7-tetrahydropyrido[4,3-d]pyrimidin-1(2H)-yl)phenoxy)acetamide] | 4 to 100
7 | Cc1c(=O)n(C)c(Nc2ccc(I)cc2F)c2c(=O)n(C)c(=O)n(-c3cccc(C(=O)NC4CC4)c3)c12 [Compound 54, N-cyclopropyl-3-(5-((2-fluoro-4-iodophenyl)amino)-3,6,8-trimethyl-2,4,7-trioxo-3,4,6,7-tetrahydropyrido[4,3-d]pyrimidin-1(2H)-yl)benzamide] | 1 to 3
8 | CNC(=O)CCc1cccc(-n2c(=O)[nH]c(=O)c3c(Nc4ccc(I)cc4F)n(C)c(=O)c(C)c32)c1 [Compound 15, 3-(3-(5-((2-fluoro-4-iodophenyl)amino)-6,8-dimethyl-2,4,7-trioxo-3,4,6,7-tetrahydropyrido[4,3-d]pyrimidin-1(2H)-yl)phenyl)-N-methylpropanamide] | 1 to 3
9 | Cc1c(=O)n(C)c(Nc2ccc(I)cc2F)c2c(=O)n(C)c(=O)n(-c3cccc(C4(C(N)=O)CC4)c3)c12 [Compound 79, 1-(3-(5-((2-fluoro-4-iodophenyl)amino)-3,6,8-trimethyl-2,4,7-trioxo-3,4,6,7-tetrahydropyrido[4,3-d]pyrimidin-1(2H)-yl)phenyl)cyclopropanecarboxamide] | 4 to 100
10 | CNC(=O)CCc1cccc(-n2c(=O)n(C3CC3)c(=O)c3c(Nc4ccc(I)cc4F)n(C)c(=O)c(C)c32)c1 [Compound 36, 3-(3-(3-cyclopropyl-5-((2-fluoro-4-iodophenyl)amino)-6,8-dimethyl-2,4,7-trioxo-3,4,6,7-tetrahydropyrido[4,3-d]pyrimidin-1(2H)-yl)phenyl)-N-methylpropanamide] | 1 to 3
11 | CCn1c(=O)c2c(Nc3ccc(I)cc3F)n(C)c(=O)c(C)c2n(-c2cccc(C(=O)NC3CC3)c2)c1=O [Compound 62, N-cyclopropyl-3-(3-ethyl-5-((2-fluoro-4-iodophenyl)amino)-6,8-dimethyl-2,4,7-trioxo-3,4,6,7-tetrahydropyrido[4,3-d]pyrimidin-1(2H)-yl)benzamide] | 4 to 100
12 | Cc1c(=O)n(C)c(Nc2ccc(I)cc2F)c2c(=O)n(C(F)F)c(=O)n(-c3cccc(C(=O)NC4CC4)c3)c12 [Compound 72, N-cyclopropyl-3-(3-(difluoromethyl)-5-((2-fluoro-4-iodophenyl)amino)-6,8-dimethyl-2,4,7-trioxo-3,4,6,7-tetrahydropyrido[4,3-d]pyrimidin-1(2H)-yl)benzamide] | 4 to 100
13 | Cc1c(=O)n(C)c(Nc2ccc(I)cc2F)c2c(=O)n(C)c(=O)n(-c3cccc(CC(=O)N(C)C)c3)c12 [Compound 44, 2-(3-(5-((2-fluoro-4-iodophenyl)amino)-3,6,8-trimethyl-2,4,7-trioxo-3,4,6,7-tetra hydropyrido[4,3-d]pyrimidin-1(2H)-yl)phenyl)-N,N-dimethylacetamide] | 0.1 to 0.9
14 | Cc1c(=O)n(C)c(Nc2ccc(I)cc2F)c2c(=O)n(C)c(=O)n(-c3cccc(C(O)C(N)=O)c3)c12 (stereo not shown) [Compound 47, 2-(3-(5-((2-fluoro-4-iodophenyl)amino)-3,6,8-trimethyl-2,4,7-trioxo-3,4,6,7-tetrahydropyrido[4,3-d]pyrimidin-1(2H)-yl)phenyl)-2-hydroxyacetamide] | 0.1 to 0.9
15 | Cc1c(=O)n(C)c(Nc2ccc(I)cc2F)c2c(=O)[nH]c(=O)n(-c3cccc(C(=O)N4CCC(O)CC4)c3)c12 [Compound 18, 5((2-fluoro-4-iodophenyl)amino)-1-(3-(4-hydroxypiperidine-1-carbonyl)phenyl)-6,8-dimethylpyrido[4,3-d]pyrimidine-2,4,7(1H,3H,6H)-trione] | 4 to 100
16 | Cc1c(=O)n(C)c(Nc2ccc(I)cc2F)c2c(=O)[nH]c(=O)n(-c3cccc(CC(=O)N(C)C)c3)c12 [Compound 10, 2-(3-(5-((2-fluoro-4-iodophenyl)amino)-6,8-dimethyl-2,4,7-trioxo-3,4,6,7-tetrahydropyrido[4,3-d]pyrimidin-1(2H)-yl)phenyl)-N,N-dimethylacetamide] | 0.1 to 0.9
17 | Cc1c(=O)n(C)c(Nc2ccc(I)cc2F)c2c(=O)n(C3CC3)c(=O)n(-c3cccc(CCC(=O)NC4CC4)c3)c12 [Compound 40, N-cyclopropyl-3-(3-(3-cyclopropyl-5-((2-fluoro-4-iodophenyl)amino)-6,8-dimethyl-2,4,7-trioxo-3,4,6,7-tetrahydropyrido[4,3-d]pyrimidin-1(2H)-yl)phenyl)propanamide] | 4 to 100
18 | Cc1c(=O)n(C)c(Nc2ccc(I)cc2F)c2c(=O)n(C)c(=O)n(-c3cccc(CC(N)=O)c3)c12 [Compound 42, 2-(3-(5-((2-fluoro-4-iodophenyl)amino)-3,6,8-trimethyl-2,4,7-trioxo-3,4,6,7-tetrahydropyrido[4,3-d]pyrimidin-1(2H)-yl)phenyl)acetamide] | 0.1 to 0.9
19 | Cc1c(=O)n(C)c(Nc2ccc(I)cc2F)c2c(=O)n(C3CC3)c(=O)n(-c3cccc(CC(N)=O)c3)c12 [Compound 26, 2-(3-(3-cyclopropyl-5-((2-fluoro-4-iodophenyl)amino)-6,8-dimethyl-2,4,7-trioxo-3,4,6,7-tetrahydropyrido[4,3-d]pyrimidin-1(2H)-yl)phenyl)acetamide] | 4 to 100
